Data published in US11059844B2, “Immune stimulating macrolides” (ISR IMMUNE SYSTEM REGULATION HOLDING AB (PUBL), priority 2017, dated 2021).

Tests used:
[1] = test system: peripheral blood mononuclear cells (PBMC); test: Marker expression on PBMC by flow cytometry; format: cell-based, Human; details: 24 h
Protocol: (§1) Human peripheral blood mononuclear cells (PBMCs) were purified from healthy donors with Ficoll-Paque density centrifugation. Cells were cultured in complete RPMI-1640 media (Invitrogen) supplemented with 25 mM HEPES, L-glutamine, Sodium pyruvate (Sigma), 10% fetal bovine serum, 100 μg/mL penicillin and 100 μg/mL streptomycin (Hyclone) for 24-72 hours in 37° C., 5% CO2 and stimulated with and increasing concentrations of compound 1 and 2. Cells were then washed in PBS and stained with monoclonal antibodies specific for cell surface markers (BD Pharmingen) and analysed with flow cytomtetry using a BD FACS Canto II flow cytometer. All samples were tested in duplicates.
Human peripheral blood mononuclear cells (PBMCs) were purified from healthy donors with Ficoll-Paque density centrifugation. Cells were cultured in complete RPMI-1640 medium (Invitrogen) supplemented with 25 mM HEPES, L-glutamine, Sodium pyruvate (Sigma), 10% fetal bovine serum, 100 μg/mL penicillin and 100 μg/mL streptomycin (Hyclone). Cells were stimulated for 24 h (study 1-4) or 48 h to 1 week (study 5) in 37° C., 5% CO2 with increasing concentrations of compound 1 and 2 in tissue culture plates. The cells were removed from the plate, washed in PBS and analysed for expression of cell specific surface markers and MHC class I with flow cytomtery using monoclonal antibodies from BD Pharmingen and a FACS Canto II flow cytometer.

[2] = test system: Monocytes differentiated into macrophages; test: CD80 expression on monocytes differentiated into macrophages; format: cell-based, Human; details: 24 h
Protocol: as §1
Human peripheral blood mononuclear cells (PBMCs) were purified from healthy donors with Ficoll-Paque density centrifugation. Cells were cultured in complete RPMI-1640 medium (Invitrogen) supplemented with 25 mM HEPES, L-glutamine, Sodium pyruvate (Sigma), 10% fetal bovine serum, 100 μg/mL penicillin and 100 μg/mL streptomycin (Hyclone). […] The cells were removed from the plate, washed in PBS and analysed for expression of cell specific surface markers and MHC class I with flow cytomtery using monoclonal antibodies from BD Pharmingen and a FACS Canto II flow cytometer.

PBMCs = test: Supernatant IL-10 sandwich ELISA; format: cell-based, Human; details: […] with 100 U/mL IL-2, 48 h and 7 days
Protocol: Supernatant IL-10 was measured with a standard sandwich ELISA (all antibodies from BD Biosciences) after 48 hours and 7 days incubation with 2.5 μM of compound 1 and 100 U/mL IL-2 (Miltenyi Biotechnologies) in complete RPMI media, 37° C., 5% CO2
Supernatant IL-10 was measured with a standard sandwich ELISA (all antibodies from BD Biosciences) after 48 hours and 7 days incubation with 2.5 uM of compound 1 and 100 U/mL IL-2 (Miltenyi Biotechnologies) in complete RPMI media, 37° C., 5% CO2.
This indicate an immune inhibitory effect under certain conditions (FIG. 5).

T cells in PBMC = test: T cell proliferation, Cell Trace Violet and flow cytometry; format: cell-based, Human; details: 6 days in the presence of IL-2
Protocol: FIG. 7. CD4 T cell proliferation after 6 days stimulation with compound 1, measured with proliferation dye Celltrace violet (Invitrogen) and flow cytometry. Untreated cells (UNT) or compound A were used as controls.
Study 6: PBMC were stimulated with compound 1 and cultured in RPMI media for 6 days in the presence of IL-2 (Miltenyi Biotechnologies) and Cell Trace Violet Dye (Invitrogen). Proliferation was measured with flow cytometry.

[3] = test system: CMV specific CD8+ T cells; test: CMV cultures: phenotype of CMV specific CD8+ T cells; format: cell-based, Human; details: CMV antigen, 6 days
Protocol: Human peripheral blood mononuclear cells (PBMCs) were purified from healthy CMV positive donors with Ficoll-Paque density centrifugation. The PBMC were labeled with 5 μM celltrace violet (Invitrogen) in PBS for 15 minutes and then washed with complete cell culture medium. The labeled PBMC was cultured in the presence of a peptide library spanning the CMV pp65 protein (1 μg peptide/ml, JPT) in AIM-V media (Invitrogen) supplemented with L-glutamine, Sodium pyruvate (Sigma), 10% fetal bovine serum, 100 μg/mL penicillin and 100 μg/mL streptomycin (Hyclone) for 6-8 days in 37° C., 5% CO2. Cell proliferation was assessed with flow cytomtery using a BD FACS Canto II flow cytometer.
Study 7: Virus specific T cell proliferation was also affected by compound 1. […] CD127 is crucial for T cell homeostasis, differentiation and function, and reduced expression correlates with disease severity in HIV and other chronic viral diseases (Crawley et al. 2012).

[4] = test system: Macrophages from healthy donors; test: Cytokine/chemokine secretion from macrophages (cytometric bead assay); format: cell-based, Human
Protocol: FIG. 10: Interferon-gamma secretion (as measured by cytometric bead assay) from macrophages stimulated with indicated compound for 48 h.
FIG. 11: Chemokine RANTES secretion (as measured by cytometric bead assay) from PBMC or macrophages stimulated with indicated compound for 48 h.
FIG. 12: IL12p70 secretion (as measured by cytometric bead assay) from PBMC or macrophages stimulated with indicated compound for 48 h.
(§2) FIG. 13: IL1b secretion (as measured by cytometric bead assay) from PBMC, macrophages or CD4 T cells stimulated with indicated compound for 48 h.
Study 9: Macrophages from healthy donors where exposed to compounds 1 or 2 for 48 hours. […] Compound 1 is therefore able to induce IFN-gamma secretion in macrophages from healthy donors.
Study 10: PBMCs and macrophages where exposed to compounds 1 or 2 for 2 days (FIG. 11).
Study 11: PBMCs and macrophages where exposed to compounds 1 and 2 for 2 days.
(§3) Study 12: PBMCs, macrophages and CD4+ T cells where exposed to compounds 1 and 2 for 2 days.

CD4+ T cells = test: IL-1beta secretion from CD4+ T cells (cytometric bead assay); format: cell-based, Human; details: 2 days
Protocol: as §2, §3

CD25+ cells = test: CD25 expression in blood of mice after i.v. dosing; format: in vivo, C57bl/6 mice; details: highest dose of 5 mg/kg, 24 h
Protocol: FIG. 14: % CD25high cells in blood of C57bl/6 mice injected 24 h previously with indicated dose of compound 1. CD25 expression was measured by flow cytometry.
(§4) Study 13: Compound 1 was administered i.v. to C57bl/6 mice at 0.165 mg/kg to 5 mg/kg. CD25+ cell abundance was increased in animals receiving the highest dose of 5 mg/kg (FIG. 14), as was body weight in the same group (not shown).

CD11b+ splenocytes = test: MHC class I expression on CD11b+ splenocytes of mice after i.v. dosing; format: in vivo, C57bl/6 mice; details: spleen removed 24 h later
Protocol: FIG. 15: % MHC class I high CD11 b+ cells in spleen of 3 individual C57bl/6 mice injected 24 h previously with indicated compound. MHC class I and CD11b expression was measured by flow cytometry.
Study 14: Compound 1 or 2 was administered i.v. to C57bl/6 mice.

[5] = Body weight of mice after i.v. dosing; format: in vivo, C57bl/6 mice; details: 5 mg/kg group (not shown)
Protocol: as §4

CC[C@H]1OC(=O)[C@H](C)[C@@H](O[C@H]2C[C@@H](N(C)C)[C@H](O)[C@@H](C)O2)[C@H](C)[C@@H](O)[C@](C)(O)C[C@@H](C)CN(C)[C@H](C)[C@@H](O)[C@]1(C)O [Compound 1]
activation marker CD69 on CD4+ T cells and B cells ([1]; 1 μM): upregulated | MHC class I (HLA-ABC) on T- and B-cells [1]: upregulation | MHC class II (HLA-DR) on monocytes [1]: upregulation | co-stimulatory molecule CD80 on monocytes [1]: upregulation | CD80 on macrophages [2]: upregulated | production of IL-10 (PBMCs): increased production | cytokine driven proliferation of T cells (T cells in PBMC): altered cytokine driven proliferation profile | expression of IL-7 receptor a (CD127) on activated CMV specific CD8+ T cells [3]: increased expression | IL-1beta secretion, macrophages ([4]; 2 days): increased | IL-12p70 secretion, macrophages ([4]; 2 days): secreted IL-12p70 | RANTES expression, macrophages ([4]; 2 days): high expression | IFN-gamma secretion, macrophages ([4]; 48 hours): secreted IFN-gamma | IL-1beta secretion, CD4+ T cells (CD4+ T cells): no IL-1beta was induced | CD25+ cell abundance (CD25+ cells): increased | splenocyte cells with high MHC I expression (CD11b+) (CD11b+ splenocytes): induced an increase | body weight [5]: increased
